Assay results as given in patent US10626112B2, “Heterocyclic sulfonamide derivative and medicine comprising same” (EA PHARMA CO., LTD., priority 2014, dated 2020).

Molecular target: human TRPA1 (Homo sapiens (Human), UniProt O75762)
Experiment: Measurement of TRPA1 antagonist activity (1): intracellular calcium increase
Type: cell-based
Conditions: 293T cells transfected with human TRPA1 expression plasmid; allylisothiocyanate 20 μM stimulation; intracellular calcium fluorescence; read-out: hTRPA1 IC50
How it was run: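 Calcium-flux readout of TRPA1 block: compound given 10 min before 20 μM (final) allylisothiocyanate, fluorescence tracked 5 min. Cells were 293T transiently expressing human TRPA1, dye-loaded 1 hr in HBSS, 20 mM HEPES, pH 7.2. Inhibition scaled between agonist-only and buffer-only responses; IC50 by sigmoid fitting.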

human TRPA1, sequence (O75762 whole entry): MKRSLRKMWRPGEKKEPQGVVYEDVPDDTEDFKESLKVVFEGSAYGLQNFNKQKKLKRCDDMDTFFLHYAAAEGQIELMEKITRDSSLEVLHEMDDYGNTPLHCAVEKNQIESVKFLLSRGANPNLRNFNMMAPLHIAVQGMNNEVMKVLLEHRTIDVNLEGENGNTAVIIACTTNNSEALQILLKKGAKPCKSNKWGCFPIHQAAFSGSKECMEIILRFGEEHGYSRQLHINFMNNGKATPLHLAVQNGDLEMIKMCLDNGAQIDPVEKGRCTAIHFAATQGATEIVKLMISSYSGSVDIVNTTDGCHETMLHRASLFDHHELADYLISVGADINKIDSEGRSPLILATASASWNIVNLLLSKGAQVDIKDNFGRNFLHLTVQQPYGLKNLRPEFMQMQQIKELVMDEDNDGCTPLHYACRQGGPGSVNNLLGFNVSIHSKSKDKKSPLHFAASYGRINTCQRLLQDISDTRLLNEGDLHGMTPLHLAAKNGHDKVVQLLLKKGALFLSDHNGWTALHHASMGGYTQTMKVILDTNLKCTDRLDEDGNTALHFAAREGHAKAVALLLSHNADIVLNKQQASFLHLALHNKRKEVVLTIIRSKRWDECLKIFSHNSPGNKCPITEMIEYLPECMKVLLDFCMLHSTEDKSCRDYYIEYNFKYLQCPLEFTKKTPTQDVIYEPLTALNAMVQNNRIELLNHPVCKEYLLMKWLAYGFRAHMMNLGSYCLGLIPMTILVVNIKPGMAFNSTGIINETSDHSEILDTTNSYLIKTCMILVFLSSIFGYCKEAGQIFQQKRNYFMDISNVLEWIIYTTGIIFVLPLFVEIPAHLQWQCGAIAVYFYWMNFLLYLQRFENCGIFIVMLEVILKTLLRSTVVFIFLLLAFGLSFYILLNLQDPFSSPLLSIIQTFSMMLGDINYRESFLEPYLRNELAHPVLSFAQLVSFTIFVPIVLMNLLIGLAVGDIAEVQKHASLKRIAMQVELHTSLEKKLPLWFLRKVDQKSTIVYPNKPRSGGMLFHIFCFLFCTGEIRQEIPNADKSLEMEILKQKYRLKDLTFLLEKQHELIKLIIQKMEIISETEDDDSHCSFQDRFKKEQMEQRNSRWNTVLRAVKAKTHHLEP

IC50 [nM] | Structure (SMILES)
17 | C[C@H](NS(=O)(=O)c1cc2cc(F)ccc2o1)C(=O)NCc1cc(-c2ccc(C(F)(F)F)cn2)c(O)cn1 [Example 255, (2S)-2-[(5-fluorobenzofuran-2-yl)sulfonylamino]-N-[[5-hydroxy-4-[5-(trifluoromethyl)-2-pyridyl]-2-pyridyl]methyl]propanamide]
91 | O=C(NCc1cc(-c2ccc(C(F)(F)F)cn2)ccn1)[C@@H]1C[C@@H](O)CN1S(=O)(=O)c1cc2cc(F)ccc2o1 [Example 256, (2S,4R)-1-(5-fluorobenzofuran-2-yl)sulfonyl-4-hydroxy-N-[[4-[5-(trifluoromethyl)-2-pyridyl]-2-pyridyl]methyl]pyrrolidine-2-carboxamide]
64 | O=C(NCc1cc(-c2ccc(C(F)(F)F)cn2)ccn1)[C@@H]1[C@H]2C[C@H]2CN1S(=O)(=O)c1cc2cc(F)ccc2o1 [Example 257, (1R,4S,5S)-3-(5-fluorobenzofuran-2-yl)sulfonyl-N-[[4-[5-(trifluoromethyl)-2-pyridyl]-2-pyridyl]methyl]-3-azabicyclo[3.1.0]hexane-4-carboxamide]
1.9 | O=C(NCc1cc(-c2ccc(C(F)(F)F)cn2)ccn1)[C@@H]1C[C@H]2C[C@H]2N1S(=O)(=O)c1cc2cc(F)ccc2o1 [Example 258, (1R,3S,5R)-4-(5-fluorobenzofuran-2-yl)sulfonyl-N-[[4-[5-(trifluoromethyl)-2-pyridyl]-2-pyridyl]methyl]-4-azabicyclo[3.1.0]hexane-3-carboxamide]
1.2 | O=C(NCc1cc(-c2ccc(C(F)(F)F)cn2)ccn1)[C@@H]1C[C@@H]2C[C@@H]2N1S(=O)(=O)c1cc2cc(F)ccc2o1 [Example 259, (1S,3S,5S)-4-(5-fluorobenzofuran-2-yl)sulfonyl-N-[[4-[5-(trifluoromethyl)-2-pyridyl]-2-pyridyl]methyl]-4-azabicyclo[3.1.0]hexane-3-carboxamide]
51 | O=C(NCc1cc(-c2ccc(C(F)(F)F)cn2)ccn1)[C@@H]1C[C@@H](c2ccccc2)CN1S(=O)(=O)c1cc2cc(F)ccc2o1 [Example 260, (2S,4S)-1-(5-fluorobenzofuran-2-yl)sulfonyl-4-phenyl-N-[[4-[5-(trifluoromethyl)-2-pyridyl]-2-pyridyl]methyl]pyrrolidine-2-carboxamide]
37 | O=C(NCc1cc(-c2ccc(C(F)(F)F)cn2)ccn1)[C@@H]1CCCCN1S(=O)(=O)c1cc2cc(F)ccc2o1 [Example 261, (2S)-1-(5-fluorobenzofuran-2-yl)sulfonyl-N-[[4-[5-(trifluoromethyl)-2-pyridyl]-2-pyridyl]methyl]piperidine-2-carboxamide]
2.3 | O=C(NCc1cc(-c2ccc(C(F)(F)F)cn2)ccn1)[C@@H]1[C@H]2CC[C@H](C2)N1S(=O)(=O)c1cc2cc(F)ccc2o1 [Example 262, (1S,2S,4R)-3-(5-fluorobenzofuran-2-yl)sulfonyl-N-[[4-[5-(trifluoromethyl)-2-pyridyl]-2-pyridyl]methyl]-3-azabicyclo[2.2.1]heptane-2-carboxamide]
21 | O=C(NCc1cc(-c2ccc(C(F)(F)F)cn2)ccn1)[C@@H]1CC=CCN1S(=O)(=O)c1cc2cc(F)ccc2o1 [Example 263, (2S)-1-(5-fluorobenzofuran-2-yl)sulfonyl-N-[[4-[5-(trifluoromethyl)-2-pyridyl]-2-pyridyl]methyl]-3,6-dihydro-2H-pyridine-2-carboxamide]
12 | O=C(NCc1cc(-c2ccc(C(F)(F)F)cn2)ccn1)[C@@H]1CCCN1S(=O)(=O)c1cc2c(Cl)nccc2o1 [Example 265, (2S)-1-(4-chlorofuro[3,2-c]pyridin-2-yl)sulfonyl-N-[[4-[5-(trifluoromethyl)-2-pyridyl]-2-pyridyl]methyl]pyrrolidine-2-carboxamide]
38 | O=C(NCc1cc(C(F)(F)F)ccc1Cl)[C@@H]1CCCN1S(=O)(=O)c1cc2cnccc2o1 [Example 266, (2S)-N-[[2-chloro-5-(trifluoromethyl)phenyl]methyl]-1-furo[3,2-c]pyridin-2-ylsulfonyl-pyrrolidine-2-carboxamide]
6.4 | O=C(NCc1cccc(OCc2ccccc2)c1)[C@@H]1CCCN1S(=O)(=O)c1cc2cnccc2o1 [Example 267, (2S)-N-[(3-benzyloxyphenyl)methyl]-1-furo[3,2-c]pyridin-2-ylsulfonyl-pyrrolidine-2-carboxamide]
29 | O=C(NCc1ccc(Oc2cccc(C(F)(F)F)c2)cc1)[C@@H]1CCCN1S(=O)(=O)c1cc2cnccc2o1 [Example 268, (2S)-1-furo[3,2-c]pyridin-2-ylsulfonyl-N-[[4-[3-(trifluoromethyl)phenoxy]-phenyl]methyl]pyrrolidine-2-carboxamide]
4.3 | O=C(NCc1cccc(Oc2ccc(C(F)(F)F)cc2)c1)[C@@H]1CCCN1S(=O)(=O)c1cc2cnccc2o1 [Example 269, (2S)-1-furo[3,2-c]pyridin-2-ylsulfonyl-N-[[3-[4-(trifluoromethyl)phenoxy]-phenyl]methyl]pyrrolidine-2-carboxamide]
3.8 | O=C(NCc1cc(-c2ccc(C(F)(F)F)cc2)ncn1)[C@@H]1CCCN1S(=O)(=O)c1cc2cnccc2o1 [Example 270, (2S)-1-furo[3,2-c]pyridin-2-ylsulfonyl-N-[[6-[4-(trifluoromethyl)phenyl]-pyrimidin-4-yl]methyl]pyrrolidine-2-carboxamide]
4.4 | O=C(NCc1ccnc(-c2ccc(C(F)(F)F)cc2O)c1)[C@@H]1CCCN1S(=O)(=O)c1cc2cnccc2o1 [Example 271, (2S)-1-furo[3,2-c]pyridin-2-ylsulfonyl-N-[[2-[2-hydroxy-4-(trifluoromethyl)phenyl]-4-pyridyl]methyl]pyrrolidine-2-carboxamide]
12 | O=C(NCc1cc(-c2ccc(C(F)(F)F)cn2)ccn1)[C@@H]1CCCN1S(=O)(=O)c1cc2cnccc2o1 [Example 272, (2S)-1-furo[3,2-c]pyridin-2-ylsulfonyl-N-[[4-[5-(trifluoromethyl)-2-pyridyl]-2-pyridyl]methyl]pyrrolidine-2-carboxamide]
1.6 | O=C(NCc1ccc(O)c(-c2ccc(C(F)(F)F)cn2)c1)[C@@H]1CCCN1S(=O)(=O)c1cc2cnccc2o1 [Example 273, (2S)-1-furo[3,2-c]pyridin-2-ylsulfonyl-N-[[4-hydroxy-3-[5-(trifluoromethyl)-2-pyridyl]phenyl]methyl]-pyrrolidine-2-carboxamide]
9.8 | O=C(NCc1cccc(OCc2ccnc(C(F)(F)F)c2)c1)[C@@H]1CCCN1S(=O)(=O)c1cc2cnccc2o1 [Example 274, (2S)-1-furo[3,2-c]pyridin-2-ylsulfonyl-N-[[3-[[2-(trifluoromethyl)-4-pyridyl]methoxy]phenyl]-methyl]pyrrolidine-2-carboxamide]
3.8 | C#CCN([C@@H](C)C(=O)NCc1ccnc(-c2ccc(C(F)(F)F)cc2O)c1)S(=O)(=O)c1cc2cc(F)ccc2o1 [Example 275, (2S)-2-[(5-fluorobenzofuran-2-yl)sulfonyl-2-propynylamino]-N-[[2-[2-hydroxy-4-(trifluoromethyl)phenyl]-4-pyridyl]methyl]propanamide]
150 | CC(C)(C)OC(=O)Nc1ccccc1-c1cc(CNC(=O)[C@@H]2CCCN2S(=O)(=O)c2cc3ccccc3o2)ccn1 [Example 276, N-[2-[4-[[[(2S)-1-(benzofuran-2-ylsulfonyl)pyrrolidine-2-carbonyl]amino]methyl]-2-pyridyl]phenyl]carbamic acid tert-butyl]
89 | O=C(NCc1ccnc(-c2cc(Cl)cs2)c1)[C@@H]1CCCN1S(=O)(=O)c1cc2ccccc2o1 [Example 277, (2S)-1-(benzofuran-2-ylsulfonyl)-N-[[2-(4-chloro-2-thienyl)-4-pyridyl]methyl]pyrrolidine-2-carboxamide]
16 | CSc1ccc(-c2cc(CNC(=O)[C@@H]3CCCN3S(=O)(=O)c3cc4ccccc4o3)ccn2)cc1 [Example 278, (2S)-1-(benzofuran-2-ylsulfonyl)-N-[[2-(4-methylsulfanylphenyl)-4-pyridyl]methyl]pyrrolidine-2-carboxamide]
2.8 | O=C(NCc1cncc(-c2ccc(OC(F)(F)F)cc2)c1)[C@@H]1CCCN1S(=O)(=O)c1cc2cc(F)ccc2o1 [Example 279, (2S)-1-(5-fluorobenzofuran-2-yl)sulfonyl-N-[[5-[4-(trifluoromethoxy)phenyl]-3-pyridyl]methyl]pyrrolidine-2-carboxamide]
520 | O=C(NCc1cc(-c2ccc(C(F)(F)F)cc2O)ccn1)[C@@H]1CCCN1S(=O)(=O)c1cc2cc(F)ccc2o1 [Example 280, (2S)-1-(5-fluorobenzofuran-2-yl)sulfonyl-N-[[4-[2-hydroxy-4-(trifluoromethyl)phenyl]-2-pyridyl]methyl]pyrrolidine-2-carboxamide]
22 | N#Cc1ccc(-c2ccnc(CNC(=O)[C@@H]3CCCN3S(=O)(=O)c3cc4ccccc4o3)c2)cc1 [Example 281, (2S)-1-(benzofuran-2-ylsulfonyl)-N-[[4-(4-cyanophenyl)-2-pyridyl]methyl]pyrrolidine-2-carboxamide]
250 | O=C(NCc1cc(/C=C/C2CC2)ccn1)[C@@H]1CCCN1S(=O)(=O)c1cc2ccccc2o1 [Example 282, (2S)-1-(benzofuran-2-ylsulfonyl)-N-[[4-[(E)-2-cyclopropylvinyl]-2-pyridyl]methyl]pyrrolidine-2-carboxamide]
250 | O=C(NCc1cc(C2=CCCCC2)ccn1)[C@@H]1CCCN1S(=O)(=O)c1cc2ccccc2o1 [Example 283, (2S)-1-(benzofuran-2-ylsulfonyl)-N-[[4-(cyclohexen-1-yl)-2-pyridyl]methyl]pyrrolidine-2-carboxamide]
76 | Cc1ccc(-c2ccnc(CNC(=O)[C@@H]3CCCN3S(=O)(=O)c3cc4ccccc4o3)c2)cc1 [Example 284, (2S)-1-(benzofuran-2-ylsulfonyl)-N-[[4-(p-tolyl)-2-pyridyl]methyl]pyrrolidine-2-carboxamide]
